According to patent US20260125351A1, “COMPOUND FOR INDUCING EXPRESSION OF ANTI-AGING GENE KLOTHO AND USE THEREOF” (KLOTHO SCIENCES, priority 2019, published 2026):

Columns and labels:
[1] = system: promoter of the human klotho gene; assay: Luciferase expression experiment, klotho promoter reporter (1.7 kbp or 240 bp) in RPTEC cells; type: cell-based; conditions: 5 μM, 24 hours, reporter with klotho promoter to 1.7 kbp or 240 bp, among Comparative Examples 1 to 4 (FIG. 1)
Protocol: (§1) In order to evaluate whether the klotho gene was expressed by the evaluation of luciferase activity, human renal proximal tubule epithelial cells (RPTECs) (ATCC CRL-4031), which are epithelial cells of the proximal tubule of the human kidneys, were purchased from Lonza, USA and used.
(§2) For culturing, a Renal Epithelial Growth Medium (REGM™) Bullet kit, also manufactured by the same Lonza company, was used, and the cells were cultured under conditions of 37° C. and 5% CO2. As a plasmid for luciferase expression, a plasmid in which the promoter site of a human KL (klotho) gene was disposed to regulate the expression of a firefly luciferase gene was used.
The plasmid was incorporated into cells using an X-treme GENE transfection reagent from Roche. The activity of luciferase expressed in cells was measured using a Dual-Luciferase reporter assay system manufactured by Promega. After the cultured cells were treated with each compound at an indicated concentration for 24 hours, the activity of luciferase was measured. It is indirectly shown that the expression of the klotho gene may be increased when the activity of luciferase is high. […]

[2] = system: klotho protein; assay: Klotho protein expression level in cisplatin-treated HK-2 cells; type: cell-based, human; conditions: cisplatin (20 μM) disease model, KS1 3 μM, after 24 hours (FIG. 7B)
Protocol: As in the protocol in FIG. 7A, a disease model was made by treating HK-2 cells (human renal cells) with cisplatin (20 μM), and then treated with a KS1 compound (Example 10) (3 μM). After 24 hours, the expression degree of the klotho protein was confirmed by obtaining the cells.

[3] = system: unilateral ureter obstruction model; assay: Unilateral ureter obstruction (UUO) model; type: in vivo; conditions: UUO mice, 20 mg/kg/day into the abdominal cavity
Protocol: In a unilateral ureter obstruction model, 5-week-old male […] mice were used. After the right ureter was tied with a thread to create a unilateral ureter obstruction model, the KS1 compound (20 mg/kg/day) was injected into the abdominal cavity daily starting 24 hours later. After that, samples were collected by sacrificing the mice on days 7 and 14 and tested (FIG. 8A).

[4] = system: klotho (KL) gene; assay: Quantitative evaluation of klotho (KL) gene expression level using general PCR in RPTEC cells; type: cell-based, human; design: dose or concentration left out as unconfirmed; conditions: general PCR (FIG. 5)
Protocol: After RPTEC cells, which are epithelial cells of the proximal tubule of the human kidneys, were each treated with the compounds of Examples 7 to 10 at […] for 6 hours. RNA was extracted from the cells, and cDNA was prepared from the extracted RNA using a Superscript II kit from Thermo Fisher Scientific, Inc., and then general PCR was performed.
Information on the primers used in the experiment is as follows.
The DNA amplified by PCR was confirmed by staining with ethidium bromide after electrophoresis on an agarose gel, and the amounts of DNA in the band were quantitatively compared using the SPEedyQuant program, and are illustrated in FIG. 5.

[5] = system: Human renal proximal tubule epithelial cells (RPTECs); assay: Inhibition of cellular senescence, senescence β-galactosidase staining; type: cell-based
Protocol: Human renal proximal tubule epithelial cells (RPTECs), which are renal tubular epithelial cells, were purchased from Lonza, and as a culture medium, a REGM kit supplied by the same company was also used. Cells were cultured in a 37° C. incubator under 5% CO2 conditions. When the cells reached 80% saturation, the cells were treated with trypsin, transferred to a new culture dish, and subcultured. A compound was attached to the medium such that the final concentration was 2.5 μM, and a constant concentration was maintained by adding the compound thereto during each passage. […] As for the cells inducing senescence, cells subcultured 17 times (#17) in total were used.
“Senescence β-galactosidase staining kit” from Cell Signaling Technology, Inc. was used to confirm the degree of senescence of cells. On the day of the experiment, a staining solution was added to the cells, and the stained cells were confirmed 8 hours later. The number of stained cells was confirmed and expressed as a ratio among the total number of cells observed under a 200-fold microscope, and the number of stained cells at three different locations per sample was counted and averaged. As the senescence of the cells progresses, the expression of the enzyme β-galactosidase increases, and therefore the stained cells may be determined as more senescent cells than the non-stained cells.

[6] = system: spontaneous hypertensive rat (SHR); assay: Effect of reducing hypertension in spontaneous hypertensive rat; type: in vivo; conditions: SHR rats
Protocol: A 6-week-old rat male WKY/lzm was used as a normal control, and a 6-week-old rat male SHR/lzm was used as an experimental group in which hypertension was induced. All animals were purchased from the Central Laboratory Animal, and experiments were conducted at the rearing facility in a re-entry area within the Experimental Animal Center of the Osong Medical Innovation Foundation. The […] were quarantined and acclimatized for 7 days after receipt, and the health of the animals was observed during this period.
Group separation was performed on the end day of instrument acclimatization (group separation day) among animals having no general symptoms. […]
• (1) A test material and a positive control material were dissolved in an excipient in a liquid amount of 20 mIJkg according to the corresponding concentration. • (2) After quarantine and acclimatization, the excipient, the test material, and the positive control material were administered after group separation based on the blood pressure and body weight of animals. • (3) All administration groups were administered orally 7 times/week for 8 weeks using a 3 mL syringe with a liquid amount of 20 mL/kg based on the body weight measured once a week. […]
On days 36 and 64 after administration of the drug, blood pressure was measured by placing the animals in a blood pressure measuring frame and allowing the tails to come out. […]

[7] = system: human kidney-2 (HK2) cells; assay: Toxicity test, EZ-Cytox kit; type: cell-based; conditions: 12.5 μM or 25 μM, 24 hours
Protocol: Cultured human kidney-2 (HK2) cells were treated with Comparative Example 1, Example 2 and Examples 9 to 10 at a concentration of 25 μM or 12.5 μM, and after 24 hours, cytotoxicity was measured using an EZ-Cytox kit.

[8] = system: promoter of the human klotho gene; assay: Luciferase expression experiment, reporter gene pHKP-luc (promoter up to -2.1 kb upstream) in RPTECs; type: cell-based
Protocol: as §1, §2
The plasmid was incorporated into cells using an X-treme GENE transfection reagent from Roche. The activity of luciferase expressed in cells was measured using a Dual-Luciferase reporter assay system manufactured by Promega. After the cultured cells were treated with each compound at an indicated concentration for 24 hours, the activity of luciferase was measured. It is indirectly shown that the expression of the klotho gene may be increased when the activity of luciferase is high.
The results of confirming the expression of a reporter gene by treating RPTECs, which are epithelial cells of the proximal tubule of the human kidneys, with Examples 1 to 6 at concentrations of 0.5, 1 and 5 μM and Comparative Example 1 at a concentration of 5 μM and using a reporter gene (pHKP-luc) including a promoter included up to −2.1 kb upstream of the human klotho gene are illustrated in FIGS. 2 and 3.

[9] = system: klotho (KL) gene; assay: Quantitative evaluation of klotho (KL) gene expression level using real-time PCR in RPTEC cells; type: cell-based, human; conditions: RPTEC cells treated for 6 hours; real-time PCR (FIG. 4)
Protocol: For RNA extraction from RPTEC cells, which are epithelial cells of the proximal tubule of the human kidneys, treated with the compounds of Comparative Example 1 and Examples 1 and 2 for 6 hours, an RNeasy kit from Qiagen Inc. was used. The results of preparing cDNA from extracted RNA using a Superscript II kit from Thermo Fisher Scientific. Inc. and performing the quantitative evaluation using Taqman Gene Expression assays from Applied Biosystems as a klotho (KL) gene-specific kit are illustrated in FIG. 4.

[10] = RPTECs, Examples at 0.5, 1 and 5 μM, Comparative Example 1 at 5 μM, pHKP-luc (FIG. 2)

## O=C(Nc1ccccc1Cl)c1c[nH]c2ccccc12 [Comparative Example 1, N-(2-chlorophenyl)-1H-indole-3-carboxamide]
[1]
  luciferase activity: highest

## Fc1ccc(Nc2nc3ccccc3o2)cc1F [Example 10, N-(3,4-difluorophenyl)benzo[d]oxazol-2-amine]
[2]
  expression of the klotho protein: increased
[3]; days 7 and 14 (FIG. 8B)
  renal hypertrophy (kidney size): no difference in size
[3]; one-week and two-week samples (FIG. 9)
  nuclear and cytoplasmic changes, H&E staining: large reduction in tissue destruction
[3]; one-week sample (FIG. 12)
  klotho protein expression: increased
[3]; versus UUO model not treated with KS1 (FIG. 10)
  fibrosis progression, Sirius Red staining: fibrosis occurred less
[3]; versus UUO model not treated with KS1 (FIG. 11)
  degree of apoptosis, TUNEL staining: remarkably reduced
[3]; week 1 and week 2 (FIG. 13)
  expression level of MMP-9 protein (inflammation marker): remarkably reduced
[4]
  expression level of the klotho (KL) gene relative to Comparative Example 1: about 10 times
[5]; RPTECs subcultured 17 times, 2.5 μM in medium, DMSO about 90% (FIG. 15)
  cells stained (senescence β-galactosidase): about 70%
[5]; RPTECs, 17 passages, 2.5 μM
  decrease in degree of senescence compared to DMSO: about 20%
[6]; KS1 co-administered with losartan, versus each drug administered independently (FIG. 14)
  blood pressure reduction effect on co-administration with losartan: better blood pressure reduction effect
[6]; oral 20 mg/kg/day for 8 weeks, measured days 36 and 64 (FIG. 14)
  systolic pressure: remarkably reduced
[7]
  improvement of toxicity compared to Comparative Example 1: ≥ 20%
[7]; EZ-Cytox (FIG. 6)
  cytotoxicity: least toxicity

## O=C(Nc1nc2ccccc2o1)c1ccc([N+](=O)[O-])cc1Cl [Example 1, N-(benzo[d]oxazol-2-yl)-2-chloro-4-nitrobenzamide]
[8]; [10]
  expression of the reporter gene: at a level similar to that of Comparative Example 1

## Cc1ccc2oc(Nc3ccc(Cl)c(Cl)c3)nc2c1 [Example 2]
[8]; RPTEC cells, 5 μM, pHKP-luc (FIG. 3)
  expression of the reporter gene: at a level similar to that of Comparative Example 1
[8]; [10]
  expression of the reporter gene: at a level similar to that of Comparative Example 1
[9]
  mRNA expression level of the klotho (KL) gene: at a level similar to that of Comparative Example 1

## N.N.[Cl][Pt][Cl] [cisplatin, reference compound]
[2]
  expression of the klotho protein: decreased
